# Where two headings read alike, the source gives them in different places.
# How the values were obtained:
# [1] = system: influenza virus A/PR/8/34 (H1N1); assay: in vitro; conditions: MDCK, H1N1
# MDCK cells [2] = assay: Cytotoxicity assay in MDCK cells (MTT, 72 h); conditions: MDCK cells; for CC0 (maximal non-cytotoxic concentration) / CC50 (50% cytotoxic concentration): 72 h, MTT; for CC0 (maximal non-cytotoxic concentration): more than 90% cells viable
# [3] = Cytotoxicity assay in MDCK cells (MTT, 72 h); conditions: dog
# recombinant human CLK1 = target: T1, recombinant human CLK1 (Homo sapiens, UniProt P49759); assay: CLK1 inhibitory assay (Kinase-Glo luminescent kinase assay, MBP substrate); type: biochemical
# T1 construct: The primer of human full length CLK1 gene was as follows; made in house; host or cells: Sf9 insect cells (baculovirus, pFastBac1)
# Protocol: The optimal conditions were dependent on the largest change in luminescence when comparing kinase reaction wells with control wells.
# The kinase assay in this study utilized appropriate concentration of recombinant purified protein CLK1 in the presence of MBP as the substrate, MgCl2, MnCl2, ATP in kinase buffer (10 mM Tris, 1 mM EGTA, 100 μM sodium orthovanadate, 10 μM p-nitrophenyl phosphate (PNP), pH7.4) in a reaction volume of 20 μL. The reaction system were incubated at 25 °C for appropriate time. The Kinase-Glo® Luminescent Kinase Assay Platform was used to measure kinase activity by quantitating the amount of ATP, the signals of which were recorded using PerkinElmer’s EnSpire Multilabel Plate Reader. All the above components were added to the plate by automatic dispenser (EDR-384S, BioTec, Tokyo, Japan). A series of parameters containing the amount of kinase (1.16–298 ng/mL), MBP (3.125–150 μg/mL), ATP (0.1–100 μM), Mg^2+ (0.01–100 mM), Mn^2+ (0.5–20 mM), the percentage of DMSO (0.03%–10%), reaction time and temperature were optimized respectively in order to get best performance. Z′ factor values was calculated as described.
# The inhibition percentage of the compounds against CLK1 were calculated according to the formula: (1) inhibition%=[(RLUsample−RLUpositive)/(RLUnegative−RLUpositive)]×100% where the RLUsample, RLUpositive, RLUnegative are the measured RLU values with treatment of test compounds, the wells free of test compounds, and that of without kinase, respectively.
# [4] = system: influenza virus A/PR/8/34 (H1N1); assay: organism not typed; conditions: MDCK
# in vitro = conditions: dog
# MDCK cells [5] = conditions: dog, 72 h
# CLK1 = conditions: cited from earlier work
# [6] = system: influenza virus A/PR/8/34 (H1N1)
# [7] = Post-Treatment Assay SI (selective index, CC50/EC50), post-treatment
# [8] = Kinase-Glo assay, read-out: IC50 (converted)
# [9] = 24 h, read-out: Simultaneous Treatment Assay EC50
# [10] = read-out: Post-Treatment Assay EC50
# [11] = read-out: Pre-Treatment Assay EC50
# [12] = H1N1 (MOI 0.01) incubated with MDCK cells 2 h, then compound, 24 h, mean ± SD
# [13] = H1N1 (MOI 0.01) pre-incubated with compound 2 h at 37 °C before addition to MDCK cells, 24 h, mean ± SD
# [14] = compound added along with H1N1 (MOI 0.01) to MDCK cells, 24 h, mean ± SD
# T1 sequence (P49759 whole entry): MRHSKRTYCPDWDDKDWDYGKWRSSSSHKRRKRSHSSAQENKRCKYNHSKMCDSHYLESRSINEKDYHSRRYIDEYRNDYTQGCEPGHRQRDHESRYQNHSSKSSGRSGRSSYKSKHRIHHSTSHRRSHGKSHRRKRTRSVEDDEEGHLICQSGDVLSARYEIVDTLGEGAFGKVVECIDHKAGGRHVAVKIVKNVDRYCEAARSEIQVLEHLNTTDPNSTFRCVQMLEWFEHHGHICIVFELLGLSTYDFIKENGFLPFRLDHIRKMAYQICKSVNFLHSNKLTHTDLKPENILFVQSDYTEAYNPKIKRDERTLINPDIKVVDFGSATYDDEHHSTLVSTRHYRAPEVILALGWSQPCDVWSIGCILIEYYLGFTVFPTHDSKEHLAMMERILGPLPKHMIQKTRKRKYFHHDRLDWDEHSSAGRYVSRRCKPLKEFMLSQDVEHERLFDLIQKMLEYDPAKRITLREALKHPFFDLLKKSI
compound,measurement,setting,value
"O=c1cc(-c2ccc(O)c(O)c2)oc2cc(O)cc(O)c12 [J20725, Luteolin]",selectivity ratio at 24 h,[1]; [7],4.33
same,concentration above which toxic effects occur,MDCK cells [2],above 10 μg/mL
same,CC0 (maximal non-cytotoxic concentration),MDCK cells [2],10 µg/mL
same,CC50 at 72 h,[3]; MDCK cells,24.9 µg/mL
same,IC50,recombinant human CLK1; [8],< 175 µM
same,EC50,[4]; [9],> 10 µg/mL
same,EC50,[4]; [10],5.74 ± 0.54 µg/mL
same,EC50,[4]; [11],> 10 µg/mL
"O=c1cc(-c2ccccc2)oc2c(O)c(O)cc(O)c12 [J21548, Norwogonin]",CC50 at 72 h,in vitro,91.8 µg/mL
same,IC50,"recombinant human CLK1; IC50, Kinase-Glo assay",< 185 µM
same,EC50,[4]; [9],> 30 µg/mL
same,EC50,[4]; [10],> 30 µg/mL
same,EC50,[4]; [11],> 30 µg/mL
same,CC0 (maximal non-cytotoxic concentration),MDCK cells [5],30 µg/mL
"CCCOC(=O)c1cc(O)c(O)c(O)c1 [J25986, Propyl gallate]",selectivity ratio at 24 h,[1]; [7],53.2
same,selectivity ratio at 24 h,"[1]; Pre-Treatment Assay SI (selective index, CC50/EC50), pre-treatment",11.4
same,selectivity ratio at 24 h,"[1]; Simultaneous Treatment Assay SI (selective index, CC50/EC50), simultaneous treatment",14.1
same,CC0 (maximal non-cytotoxic concentration),MDCK cells [2],30 µg/mL
same,CC50 at 72 h,[3]; MDCK cells,182 µg/mL
same,IC50,recombinant human CLK1; [8],< 236 µM
same,EC50,[4]; [9],12.9 ± 8.06 µg/mL
same,EC50,[4]; [10],3.42 ± 0.2 µg/mL
same,EC50,[4]; [11],15.9 ± 6.94 µg/mL
COC(=O)c1cc(O)c(O)c(O)c1 [Methyl gallate],CC50 at 72 h,[3],69.5 µg/mL
same,IC50,"recombinant human CLK1; IC50, Kinase-Glo assay",< 272 µM
same,EC50,[4]; [9],> 30 µg/mL
same,EC50,[4]; [10],> 30 µg/mL
same,EC50,[4]; [11],> 30 µg/mL
same,CC0 (maximal non-cytotoxic concentration),MDCK cells [5],30 µg/mL
c1csc(CNc2ncnc3ccc(-c4ccc5c(c4)OCO5)cc23)c1 [NCGC00010037],IC50,CLK1,0.037 µM
"NC(=O)c1ncn([C@@H]2O[C@H](CO)[C@@H](O)[C@H]2O)n1 [Ribavirin, reference compound]",CC50 at 72 h,[3],> 200 µg/mL
same,EC50,[4]; [9],10.3 ± 2.38 µg/mL
same,EC50,[4]; [10],13.8 ± 3.47 µg/mL
same,EC50,[4]; [11],4.36 ± 0.99 µg/mL
"CCN1/C(=C/C(C)=O)Sc2ccc(OC)cc21 [TG003, reference compound]",Post-Treatment Assay EC50,[6]; [12],3.56 ± 1.47 µg/mL
same,Pre-Treatment Assay EC50,[6]; [13],5.09 ± 0.78 µg/mL
same,Simultaneous Treatment Assay EC50,[6]; [14],15.75 ± 3.49 µg/mL
Chebulanin [J12133],Post-Treatment Assay EC50,[6]; [12],21.11 ± 11.15 µg/mL
same,Pre-Treatment Assay EC50,[6]; [13],15.29 ± 10.35 µg/mL
same,Simultaneous Treatment Assay EC50,[6]; [14],9.84 ± 0.44 µg/mL
same,"Post-Treatment Assay SI (selective index, CC50/EC50)","[6]; post-treatment, MDCK, H1N1",4.28
same,"Pre-Treatment Assay SI (selective index, CC50/EC50)","[6]; pre-treatment, MDCK, H1N1",5.90
same,"Simultaneous Treatment Assay SI (selective index, CC50/EC50)","[6]; simultaneous treatment, MDCK, H1N1",9.17
same,CC50 (50% cytotoxic concentration),MDCK cells [2],90.27 µg/mL
same,CC0 (maximal non-cytotoxic concentration),MDCK cells [2],30 µg/mL
same,IC50,recombinant human CLK1; Kinase-Glo assay,lower than 50 μg/mL
Hispidulin [J20353],Post-Treatment Assay EC50,[6],>30 µg/mL
same,Pre-Treatment Assay EC50,[6],18.89 ± 5.1 µg/mL
same,Simultaneous Treatment Assay EC50,[6],5.26 ± 2.48 µg/mL
same,CC50 (50% cytotoxic concentration),MDCK cells [2],60.35 µg/mL
same,CC0 (maximal non-cytotoxic concentration),MDCK cells [2],30 µg/mL
same,IC50,recombinant human CLK1; Kinase-Glo assay,lower than 50 μg/mL

# Source: publication PMC6332427, “Drug Discovery of Host CLK1 Inhibitors for Influenza Treatment” (Molecules, 2015)
